From ChEMBL document CHEMBL1811816, “Asperaculin A, a sesquiterpenoid from a marine-derived fungus, Aspergillus aculeatus” (J Nat Prod, 2011)
Activity calls are given as the source filed them.

Experiments:
Type in all cases: functional, cell-based
HuCC-A1 = assay: Cytotoxicity against human HuCCa1 cells at 50 ug/mL after 72 hrs by MTT assay
HepG2 = assay: Cytotoxicity against human HepG2 cells at 50 ug/mL after 72 hrs by MTT assay
A549 = assay: Cytotoxicity against human A549 cells at 50 ug/mL after 72 hrs by MTT assay
MOLT-3 = assay: Cytotoxicity against human MOLT3 cells at 50 ug/mL after 72 hrs by XTT assay

Measured: Activity

CC1(C)C[C@]2(C)COC(=O)[C@H]3OC(=O)[C@]4(O)CC[C@@H]1C324 (some centres undefined)
inactive: all assays above
